According to patent US7795278B2 (sanofi-aventis Deutschland GmbH, priority 2004, dated 2010):

Tests used:
[1] = target: recombinantly expressed human PARP-1 enzyme (Homo sapiens, UniProt P09874); experiment: PARP enzyme assay (half-maximum inhibitor concentration); assay type: biochemical; settings: DNA-activated PARP-1, 200 μM NAD, tritium-labeled NAD incorporation, room temperature, 1 hour, pH 8.0
Method: Pharmacological Investigations PARP Enzyme Assay
The half-maximum inhibitor concentration is determined by incubating the substances to be tested with the DNA-activated, recombinantly expressed and purified PARP-1 enzyme. Specifically, various concentrations of the test substance are incubated in 50 μl of reaction solution, which contains 50 mM Tris, 5 mM MgCl2, 1 mM DTT, 200 μM NAD, 0.1 mCi/ml tritium-labeled NAD, 0.1 mg/ml DNA, 0.1 mg/ml histones, 2 μg/ml recombinantly expressed human PARP-1 enzyme, pH=8.0, at room temperature for 1 hour. The reaction is stopped by adding 150 μl of 20% trichloroacetic acid, and the radiolabeled protein constituents are precipitated. After incubation on ice for 10 minutes, the labeled, insoluble constituents are separated off through a glass fiber filter and, after washing with 20% trichloroacetic acid three times, the radioactivity incorporated by the PARP-1 enzyme is measured by radioluminescence.
IC-50 values were determined in this way for the following compounds: […]

[2] = system: rat cardiomyocytes (H9c2 cell line); experiment: ATP consumption assay in cardiomyoblasts; assay type: cell-based; settings: H9c2 cells, 15 min preincubation, 300 μM H2O2 for 1 hour, cellular ATP content by luciferase reaction
Method: ATP Consumption Assay in Cardiomyoblasts
The activity of the test substances in cells is ascertained by means of an ATP consumption assay. For this purpose, rat cardiomyocytes (H9c2 cell line) are seeded in a 96-well plate (40 000 cells per well, RPMI1640; 10% FCS) and kept at 37° C. and 5% CO2 for 16 hours. The cells are washed with PBS and incubated under identical conditions with various concentrations of the test substance in medium for 15 min. After addition of 300 μM H2O2, the cells are kept at 37° C., 5% CO2 for a further hour and lysed, and the cellular content of ATP is determined by means of luciferase reaction. The half-maximum effective concentration of the substances (EC50) is determined as the concentration at which the ATP content of the cells has reached half the value which can be measured with a maximally effective concentration of the same substance.
(§1) EC-50 values and apparent Ki values are determined in this way for all the following selected compounds: […]

[3] = target: purified human PARP-1 enzyme (Homo sapiens, UniProt P09874); experiment: Enzyme inhibition assay with various substrate concentrations (apparent Ki); assay type: biochemical; settings: various concentrations of tritium-labeled NAD, room temperature, 10 min; Michaelis-Menten, purely competitive inhibition assumed; read-out: app. Ki
Method: Enzyme Inhibition Assay with Various Substrate Concentrations
Apparent Ki values of the test substances are determined in an enzymatic assay using the purified human PARP-1 enzyme. Specifically, various concentrations of the tritium-labeled substrate NAD are incubated with an identical concentration of the test substance in 50 μl of reaction solution, which contains 50 mM tris, 5 mM MgCl2, 1 mM DTT, 0.1 mg/ml DNA, 0.1 mg/ml histones, 2 μg/ml recombinantly expressed human PARP-1 enzyme, pH=8.0, at room temperature for 10 min. The reaction is stopped by adding 150 μl of 20% trichloroacetic acid, and the radiolabeled protein constituents are precipitated. After incubation on ice for 10 minutes, the labeled, insoluble constituents are separated off through a glass fiber filter and, after washing with 20% trichloroacetic acid three times, the radioactivity incorporated by the PARP-1 enzyme is measured by radioluminescence. Evaluation of the incorporation rates determined in this way as a function of the concentration of the substrate NAD affords the apparent Ki values according to Michaelis-Menten kinetics, assuming that the mechanism of inhibition is purely competitive.
as §1

Chain of purified human PARP-1 enzyme (P09874 whole entry): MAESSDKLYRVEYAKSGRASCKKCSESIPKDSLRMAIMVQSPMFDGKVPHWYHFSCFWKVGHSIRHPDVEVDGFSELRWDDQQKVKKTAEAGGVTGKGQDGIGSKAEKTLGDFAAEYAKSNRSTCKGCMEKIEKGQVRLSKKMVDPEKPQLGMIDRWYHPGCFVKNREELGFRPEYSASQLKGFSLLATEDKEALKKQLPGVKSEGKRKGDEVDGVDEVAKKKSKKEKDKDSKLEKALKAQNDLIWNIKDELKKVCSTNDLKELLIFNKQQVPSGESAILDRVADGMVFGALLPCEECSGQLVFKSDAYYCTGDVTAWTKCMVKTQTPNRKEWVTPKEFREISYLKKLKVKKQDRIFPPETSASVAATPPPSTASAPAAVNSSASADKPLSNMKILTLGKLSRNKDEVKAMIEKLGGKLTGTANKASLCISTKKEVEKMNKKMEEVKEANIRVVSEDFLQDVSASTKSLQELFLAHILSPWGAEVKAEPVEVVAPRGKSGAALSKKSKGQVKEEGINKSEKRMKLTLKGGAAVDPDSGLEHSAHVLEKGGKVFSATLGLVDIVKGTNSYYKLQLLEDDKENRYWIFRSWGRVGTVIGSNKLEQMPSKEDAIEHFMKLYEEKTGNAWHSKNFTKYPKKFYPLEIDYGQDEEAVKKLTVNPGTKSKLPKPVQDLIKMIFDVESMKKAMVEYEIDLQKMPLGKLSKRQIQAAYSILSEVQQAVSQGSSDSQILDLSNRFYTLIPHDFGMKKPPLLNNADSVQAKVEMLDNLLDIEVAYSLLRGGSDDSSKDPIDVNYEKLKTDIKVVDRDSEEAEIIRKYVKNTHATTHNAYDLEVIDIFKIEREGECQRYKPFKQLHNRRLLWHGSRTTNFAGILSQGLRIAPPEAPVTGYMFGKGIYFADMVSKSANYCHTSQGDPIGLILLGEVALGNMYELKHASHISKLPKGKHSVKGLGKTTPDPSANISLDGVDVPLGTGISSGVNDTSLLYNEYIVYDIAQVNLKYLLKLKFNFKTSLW
Chain of recombinantly expressed human PARP-1 enzyme (P09874 whole entry): as above

| SMILES | IC50 [1] | EC50 [2] | Ki [3] |
| --- | --- | --- | --- |
| Cc1[nH]c(=O)c2c(c1-c1ccc(CO)o1)CCCC2 [Example 9, 4-(5-Hydroxymethylfuran-2-yl)-3-methyl-5,6,7,8-tetrahydro-2H-isoquinolin-1-one] | 0.28 µM | 1.57 µM | 0.016 µM |
| CC(=O)c1cccc(Nc2c(C)[nH]c(=O)c3c2CCCC3)c1 [Example 16, 4-(3-acetylphenylamino)-3-methyl-5,6,7,8-tetrahydro-2H-isoquinolin-1-one] | 0.09 µM | 0.2 µM | 0.054 µM |
| O=C(NCCN1CCCC1)c1cccc(Nc2c[nH]c(=O)c3c2CCCC3)c1 [Example 24, 3-(1-Oxo-1,2,5,6,7,8-hexahydroisoquinolin-4-ylamino)-N-(2-pyrrolidin-1-ylethyl)benzamide] | 0.22 µM |  | 0.031 µM |
| Cc1[nH]c(=O)c2c(c1-c1ccc(CN3CCCC3)o1)CCCC2 [Example 54, 3-methyl-4-(5-pyrrolidin-1-ylmethylfuran-2-yl)-5,6,7,8-tetrahydro-2H-isoquinolin-1-one] | 0.3 µM | 0.33 µM | 0.015 µM |
| O=c1[nH]cc(-c2ccc(CNCC(O)c3ccccc3)o2)c2c1CCCC2 (stereo not shown) [Example 72, 4-{5-[(2-hydroxy-2-phenyl-ethylamino)methyl]furan-2-yl}-5,6,7,8-tetrahydro-2H-isoquinolin-1-one] | 0.11 µM | 0.38 µM | 0.024 µM |
| CCCCNCc1ccc(-c2c[nH]c(=O)c3c2CCCC3)o1 [Example 78, 4-(5-butylaminomethylfuran-2-yl)-5,6,7,8-tetrahydro-2H-isoquinolin-1-one] | 0.25 µM | 0.52 µM | 0.04 µM |
| COc1ccc(C(=O)NCc2ccc(-c3c[nH]c(=O)c4c3CCCC4)o2)cc1 [Example 83, 4-methoxy-N-[5-(1-oxo-1,2,5,6,7,8-hexahydroisoquinolin-4-yl)furan-2-ylmethyl]benzamide] | 1.25 µM |  |  |
| O=C(NCc1ccc(-c2c[nH]c(=O)c3c2CCCC3)o1)c1cccnc1 [Example 84, N-[5-(1-oxo-1,2,5,6,7,8-hexahydroisoquinolin-4-yl)furan-2-ylmethyl]nicotinamide] | 0.79 µM |  |  |
| O=c1[nH]cc(-c2ccc(CNS(=O)(=O)c3ccc(Oc4ccccn4)cc3)o2)c2c1CCCC2 [Example 85, N-[5-(1-oxo-1,2,5,6,7,8-hexahydroisoquinolin-4-yl)furan-2-ylmethyl]-4-(pyridin-2-yloxy)benzenesulfonamide] | 1.63 µM |  |  |
| COc1cccc(S(=O)(=O)NCc2ccc(-c3c[nH]c(=O)c4c3CCCC4)o2)c1 [Example 86, 3-methoxy-N-[5-(1-oxo-1,2,5,6,7,8-hexahydroisoquinolin-4-yl)furan-2-ylmethyl]benzenesulfonamide] | 2.48 µM |  |  |
| CC(=O)Nc1ccc(S(=O)(=O)NCc2ccc(-c3c[nH]c(=O)c4c3CCCC4)o2)cc1 [Example 87, N-(4-{[5-(1-oxo-1,2,5,6,7,8-hexahydroisoquinolin-4-yl)furan-2-ylmethyl]sulfamoyl}phenyl)acetamide] | 3.77 µM |  |  |
